Paper PMC9820082, “Synthesis of 9-Hydroxy-1H-Benzo[f]chromene Derivatives with Effective Cytotoxic Activity on MCF7/ADR, P-Glycoprotein Inhibitors, Cell Cycle Arrest and Apoptosis Effects” (International Journal of Molecular Sciences, 2022)

How the values were obtained:
[1] = target: T1, P-gp activity (efflux function) (Homo sapiens, UniProt P08183); assay: Rhodamine 123 accumulation assay in MCF-7/ADR cells; type: cell-based; conditions: 4 h with compound then 5.25 μM Rho123 for 30 min
T1 construct: measuring intracellular accumulation of Rhodamine 123 in MCF-7/ADR cells; endogenous in cells; host or cells: MCF-7/ADR (Adriamycin-resistant human breast cancer cells)
T1 sequence (P08183 whole entry): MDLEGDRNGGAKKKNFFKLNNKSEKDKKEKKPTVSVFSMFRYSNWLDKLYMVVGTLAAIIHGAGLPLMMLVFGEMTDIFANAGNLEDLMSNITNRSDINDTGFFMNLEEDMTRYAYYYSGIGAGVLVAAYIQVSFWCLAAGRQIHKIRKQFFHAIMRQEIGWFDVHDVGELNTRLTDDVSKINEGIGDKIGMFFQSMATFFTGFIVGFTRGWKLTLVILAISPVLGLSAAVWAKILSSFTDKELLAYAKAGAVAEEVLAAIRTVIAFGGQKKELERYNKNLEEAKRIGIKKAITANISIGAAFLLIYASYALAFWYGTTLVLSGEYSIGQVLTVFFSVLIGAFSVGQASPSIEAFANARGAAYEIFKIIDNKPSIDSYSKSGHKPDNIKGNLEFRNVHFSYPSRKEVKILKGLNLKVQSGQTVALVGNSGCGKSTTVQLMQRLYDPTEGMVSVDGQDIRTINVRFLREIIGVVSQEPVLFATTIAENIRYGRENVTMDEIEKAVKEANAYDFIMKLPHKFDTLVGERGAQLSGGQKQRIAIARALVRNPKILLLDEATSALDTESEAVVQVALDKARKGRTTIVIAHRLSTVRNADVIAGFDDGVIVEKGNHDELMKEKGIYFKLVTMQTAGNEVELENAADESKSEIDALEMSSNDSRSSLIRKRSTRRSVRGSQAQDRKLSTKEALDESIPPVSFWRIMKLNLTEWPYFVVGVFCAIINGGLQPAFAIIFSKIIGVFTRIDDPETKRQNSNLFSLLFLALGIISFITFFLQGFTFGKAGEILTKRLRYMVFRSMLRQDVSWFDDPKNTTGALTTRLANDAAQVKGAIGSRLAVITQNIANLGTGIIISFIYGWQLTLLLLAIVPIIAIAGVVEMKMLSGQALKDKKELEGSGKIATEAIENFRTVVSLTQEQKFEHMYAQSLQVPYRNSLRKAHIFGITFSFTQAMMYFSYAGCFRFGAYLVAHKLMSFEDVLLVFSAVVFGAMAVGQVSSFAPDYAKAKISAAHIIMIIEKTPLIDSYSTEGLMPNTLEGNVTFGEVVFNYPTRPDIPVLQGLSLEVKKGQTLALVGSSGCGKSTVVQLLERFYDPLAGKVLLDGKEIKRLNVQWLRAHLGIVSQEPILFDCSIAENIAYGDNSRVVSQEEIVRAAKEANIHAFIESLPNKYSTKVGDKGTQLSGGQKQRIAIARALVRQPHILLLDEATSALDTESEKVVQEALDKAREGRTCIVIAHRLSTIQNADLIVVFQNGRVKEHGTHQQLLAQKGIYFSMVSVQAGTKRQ
Experimental: Furthermore, the reversion of P-gp-mediated multidrug resistance could be achieved by the down-regulation of P-gp expression and/or P-gp efflux function inhibition.
Briefly, resistant cancer cells were harvested, washed twice and counted. […] of each well was measured using a Spectramax Gemini fluorescence microplate reader (Molecular Devices, Sunnyvale, CA, USA). The total content of Rhodamine in each sample was determined by comparison with a Rhodamine standard curve.

MCF-7/ADR cells = assay: Cell cycle analysis by flow cytometry (PI staining); type: cell-based, human; conditions: IC50 values, 24 h
Text: Cancer cells undergo unscheduled cell divisions by the down-regulation of the four cell cycle stages (G1, S, G2 and M); therefore, the development of anticancer agents targeting cell cycle arrest represents an important therapeutic intervention. P-gp breast cancer resistance proteins (BCRP) inhibit the action of anticancer drugs on cell cycle arrest by preventing intercellular drug accumulation. By using flow cytometry and the FACS Calibers, it was possible to examine how the potent-produced compounds (4a, 4c, 4e, 4g and 4i) affected the regulation of cell cycle progression in MCF-7/ADR cells (Becton Dickinson). […] The outcomes of the cell cycle progression give three different results showing compounds with cell cyclic arrest at the G1 phase (4d and 4e), while there were other compounds at the S phase (4a and 4c) and a final compound with cell cycle arrest at both of the G1/S phases (4g and 4i). […] According to the cell cycle analysis, the tested derivatives considerably stopped the MCF-7/ADR cancer cells in the G1/S phase.
Figure 6 Effects of compounds 4a, 4c–4e, 4g and 4i on the cell cycle phases of MCF-7/ADR cells. […] Their DNA content was analyzed using fluorescence flow cytometry. […] The data are expressed as the mean ± SD of three independent experiments in triplicate. Significances are shown in comparison to control cells (* p < 0.001). TEXT PRINTED IN THE PICTURE: (a) DOX.: %DIP G1 63.03% (MCF7/ADR); %DIP G2/M 13.09% (MCF7/ADR); %DIP S 23.88% (MCF7/ADR) | (a) 4a: %DIP G1 41.63% (MCF7/ADR); %DIP G2/M 5.55% (MCF7/ADR); %DIP S 52.82% (MCF7/ADR) | (a) 4c: %DIP G1 52.13% (MCF7/ADR); %DIP G2/M 9.91% (MCF7/ADR); %DIP S 37.96% (MCF7/ADR) | (a) 4d: %DIP G1 59.42% (MCF7/ADR); %DIP G2/M 13.75% (MCF7/ADR); %DIP S 26.83% (MCF7/ADR) | (a) 4e: %DIP G1 67.32% (MCF7/ADR); %DIP G2/M 8.6% (MCF7/ADR); %DIP S 24.08% (MCF7/ADR) | (a) 4g: %DIP G1 59.37% (MCF7/ADR); %DIP G2/M 3.67% (MCF7/ADR); %DIP S 36.96% (MCF7/ADR) | (a) 4i: %DIP G1 5.68% (MCF7/ADR); %DIP G2/M 57.61% (MCF7/ADR); %DIP S 36.71% (MCF7/ADR) DOUBTS OF THE COPYIST ABOUT THIS PICTURE: The print in the histogram insets of panel (a) is very small and blurred; 3, 5, 6, 8 and 9 cannot be told apart with certainty in any value, so all values below are best readings. / DOX., %DIP G1 63.03%: 3s may be 8s / DOX., %DIP G2/M 13.09%: 9 may be 8; 3 may be 5 / DOX., %DIP S 23.88%: 8s may be 3 or 6 / 4a, %DIP G1 41.63%: 6 or 8; 3 or 8 / 4a, %DIP G2/M 5.55%: 5s may be 6 or 3 / 4a, %DIP S 52.82%: 8 may be 3 or 6 / 4c, %DIP G1 52.13%: 3 or 8 / 4c, %DIP G2/M 9.91%: 9s may be 8 / 4c, %DIP S 37.96%: 9 or 8; 6 or 8 / 4d, %DIP G1 59.42%: 9 or 8 / 4d, %DIP G2/M 13.75%: 3 or 8; 5 or 6 / 4d, %DIP S 26.83%: 6, 8 and 3 uncertain / 4e, %DIP G1 67.32%: 6 or 8; 3 or 8 / 4e, %DIP G2/M 8.6%: 8 and 6 uncertain; a further digit may be missing / 4e, %DIP S 24.08%: 8 may be 3 or 6 / 4g, %DIP G1 59.37%: 9 or 8; 3 or 8 / 4g, %DIP G2/M 3.67%: 3 or 8; 6 or 8 / 4g, %DIP S 36.96%: 3, 6 and 9 uncertain / 4i, %DIP G1 5.68%: 5, 6 and 8 uncertain; the value seems to be printed against G1 although a leading digit could be hidden / 4i, %DIP G2/M 57.61%: 5 or 6; 6 or 8 / 4i, %DIP S 36.71%: 3 or 8; 6 or 8 / The untreated control (Cont.) also carries printed percentages (%DIP G1 55.38%, %DIP G2/M 15.01%, %DIP S 29.61%) but was left out because it is not a substance.

Compound | IC50 [1] [µM] | cell cycle arrest phase (MCF-7/ADR cells)
N#CC1=C(N)Oc2ccc3ccc(O)cc3c2C1c1cccc(Cl)c1Cl (stereo not drawn) [4c, 3-Amino-1-(2,3-Dichlorophenyl)-9-Hydroxy-1H-Benzo[f]chromene-2-Carbonitrile] | 28.7 | S phase
N#CC1=C(N)Oc2ccc3ccc(O)cc3c2C1c1cc(Cl)ccc1Cl (stereo not drawn) [4e, 3-Amino-1-(2,5-Dichlorophenyl)-9-Hydroxy-1H-Benzo[f]chromene-2-Carbonitrile] | 14.6 | G1 phase
N#CC1=C(N)Oc2ccc3ccc(O)cc3c2C1c1ccc(F)cc1F (stereo not drawn) [4a, 3-Amino-1-(2,4-Difluorophenyl)-9-Hydroxy-1H-Benzo[f]chromene-2-Carbonitrile] | 23.3 | S phase
N#CC1=C(N)Oc2ccc3ccc(O)cc3c2C1c1ccc(Cl)cc1Cl (stereo not drawn) [4d, 3-Amino-1-(2,4-Dichlorophenyl)-9-Hydroxy-1H-Benzo[f]chromene-2-Carbonitrile] | 46.6 | G1 phase
N#CC1=C(N)Oc2ccc3ccc(O)cc3c2C1c1cc(Br)cc(Br)c1 (stereo not drawn) [4i, 3-Amino-1-(3,5-Dibromophenyl)-9-Hydroxy-1H-Benzo[f]chromene-2-Carbonitrile] | 55.3 | G1/S phases
N#CC1=C(N)Oc2ccc3ccc(O)cc3c2C1c1ccc(Cl)c(Cl)c1 (stereo not drawn) [4g, 3-Amino-1-(3,4-Dichlorophenyl)-9-Hydroxy-1H-Benzo[f]chromene-2-Carbonitrile] | 36.7 | G1/S phases
